Among the data in patent US20240382425A1 (BS BIOTECHNA SPOLKA Z OGRANICZONA ODPOWIEDZIALNOSCIA, priority 2021, published 2024) are EC50 and solubility values, retold here.

SMILES strings stand for the structures. ≈ marks a conversion by molar mass, not a printed value. A value given as a limit tells only on which side of the number the result lay.

Data set [1] has as its system MERS and SARS coronaviruses. The settings on record: lowest among over 290 drugs tested; cited from earlier work.
Data set [2] can be described thus: Solubility of the deprotonated form of emetine in water. It counts as physicochemical. The procedure: The total volume of titrant utilised was 1.5 mL. The precipitate was centrifuged at 6000 RPM for 20 minutes and separated from the solution. […] The precipitate was dried in a vacuum dryer at 30° C., 100 mbar pressure for 5 h and used in the next synthetic steps.

What is called EC50 is the concentration at which the effect is half-maximal. As a reminder, the solubility is the concentration that dissolves in the medium under given conditions. Low readings indicate little dissolved substance, high ones much dissolved substance. Consider `CC[C@H]1CN2CCc3cc(OC)c(OC)cc3[C@@H]2C[C@@H]1C[C@H]1NCCc2cc(OC)c(OC)cc21` [emetine], for which the 50% effective concentration (EC50) in data set [1] is < 20 nM. In data set [2], this compound had a solubility of 1790 µg/mL (≈ 3.72 mM).
